According to US20170014375A1, “PHARMACEUTICAL COMPOSITION COMPRISING EFFECTIVE DOSE OF POMIFERIN FOR TREATING CANCERS” (Macau University of Science and Technology, priority 2015, published 2017):

Columns and labels:
Assay type in all cases: cell-based
[1] = tested on: LLC-1 (mouse Lewis lung carcinoma) cells; assay: MTT cytotoxicity assay, LLC-1; conditions: LLC1, 72 h, LLC-1 (Lung), 3 days, read-out: Means of IC50
Procedure: (§1) Pomiferin is dissolved in DMSO at a final concentration of 100 mmol/L and stored at −20° C. Cytotoxicity is assessed using the 3-(4,5-dimethylthiazol-2-yl)-2,5-diphenyltetrazolium bromide assay. 4000-8000 HeLa (human cervical cancer), MCF-7 (human breast cancer), HepG2 and Hep3B (human liver cancer), H1299 and A549 (human lung cancer), LNCap (human prostate cancer) and LLC-1 (mouse Lewis lung carcinoma) cells are seeded on 96-well plates per well. After overnight pre-incubation, the cells are exposed to different concentrations of pomiferin ([…]) for 3 days. Subsequently, 10 μL of MTT reagents is added to each well and incubated at 37° C. for 4 hours followed by the addition of 100 μL solubilization buffer (10% SDS in 0.01 mol/L HCl) and overnight incubation. Absorbance at 585 nm is determined from each well the next day. The percentage of cell viability is calculated using the following formula: Cell viability (%)=Cells number treated/Cells number DMSO control×100. Data are obtained from three independent experiments.

[2] = tested on: Bax-Bak wild-type mouse embryonic fibroblasts; assay: MTT cytotoxicity assay, Bax-Bak WT MEFs; conditions: Fibroblast, 72 h, 3 days, read-out: Means of IC50
Procedure: (§2) The test compound of pomiferin is dissolved in DMSO at a final concentration of 100 mmol/L and stored at −20° C. Cytotoxicity is assessed using the 3-(4,5-dimethylthiazol-2-yl)-2,5-diphenyltetrazolium bromide assay as previously described^29. 2500 of caspase wild-type (caspase WT), caspase-3 deficient (caspase 3KO), caspase-7 deficient (caspase 7KO), caspase-3/-7 deficient (caspase 3/7 DKO), caspase-8 deficient (caspase 8KO), Bax-Bak wild-type (Bak-Bak WT) and Bax-Bak double knock out (Bak-Bak DKO) mouse embryonic fibroblasts (MEFs) are seeded on 96-well plates per well. After overnight pre-incubation, the cells are exposed to different concentrations of pomiferin (namely 100, 50, 25, 12.5, 6.25, 3.125, 1.5625, 0.78, 0.39, 0.195, 0.079, 0.039 μmol/L) for 3 days. Subsequently, 10 μL of MTT reagents is added to each well and incubated at 37° C. for 4 hours, followed by the addition of 100 μL solubilization buffer (10% SDS in 0.01 mol/L HCl) and overnight incubation. Absorbance at 585 nm is determined from each well on the following day. The percentage of cell viability is calculated using the following formula: Cell viability (%)=Cells numbertreated/Cells numberDMSO control×100. Data is obtained from three independent experiments.

[3] = tested on: Hep3B (human liver cancer) cells; assay: MTT cytotoxicity assay, Hep3B; conditions: 72 h, Hep 3B (Liver), 3 days, read-out: Means of IC50
Procedure: as §1

[4] = tested on: drug-resistant HCT-116 p53−/− colon cancer cells; assay: Annexin V/PI flow cytometry cell death, HCT-116 p53−/−; conditions: 10 μM pomiferin alone, 24 h, FIGS. 9A & B
Procedure: (§3) Cell death is measured using an annexin V staining kit (BD Biosciences, San Jose, Calif., USA). Briefly, drug-resistant HCT-116 p53−/− deficient colon cancer cells are treated with the 10 μM pomiferin in the presence or absence of 5 mM autophagic inhibitor 3-MA or 10 M calcium chelator BAPTA/AM for 24 h. Cells are then harvested and analysed by multiparametric flow cytometry using FITC-Annexin V and Propidium iodide staining (BD Biosciences, San Jose, Calif., USA) according to the manufacturer's instructions. Flow cytometry is then carried out using a FACSCalibur flow cytometer (BD Biosciences, San Jose, Calif., USA). Data acquisition and analysis is performed with CellQuest (BD Biosciences, San Jose, Calif., USA). Data are obtained from three independent experiments.

[5] = tested on: Atg7 deficient (Atg7−/−) mouse embryonic fibroblasts; assay: Annexin V/PI flow cytometry cell death, Atg7−/− MEFs; conditions: 2 μM, 24 h, FIG. 6B
Procedure: as §3, with “viability” for “death”, “Atg7 wild-type (Atg7+/+ or Atg7-wt) and Atg7” for “drug-resistant HCT-116 p53−/−”, “(Atg7−/− or Atg7-ko) mouse embryonic fibroblasts (MEFs)” for “colon cancer cells”, “2” for “10”, “pomiferin” for “pomiferin in the presence or absence of 5 mM autophagic inhibitor 3-MA or 10 M calcium chelator BAPTA/AM”

[6] = tested on: HCT-116 p53+/+ isogenic colon cancer cells; assay: MTT cytotoxicity assay, HCT116 p53+/+; conditions: Homo sapiens, HCT-116, 72 h, HCT116 p53+/+ (wild-type), 3 days, read-out: Means of IC50
Procedure: as §2, with “4000” for “2500”, “drug-resistant HCT-116 p53+/+, HCT-116 p53−/−” for “caspase wild-type (caspase WT), caspase-3 deficient (caspase 3KO), caspase-7 deficient (caspase 7KO), caspase-3/-7 deficient (caspase 3/7 DKO), caspase-8 deficient (caspase 8KO), Bax-Bak wild-type (Bak-Bak WT)”, “HCT-116 p53−/− isogenic colon cancer cells” for “Bax-Bak double knock out (Bak-Bak DKO) mouse embryonic fibroblasts (MEFs)”, “[…])” for “μmol/L)”

[7] = tested on: HCT116 p53+/− (heterozygous) isogenic colon cancer cells; assay: MTT cytotoxicity assay, HCT116 p53+/−; conditions: Homo sapiens, HCT-116, 72 h, 3 days, read-out: Means of IC50
Procedure: as §2, with “4000” for “2500”, “drug-resistant HCT-116 p53+/+, HCT-116 p53−/−” for “caspase wild-type (caspase WT), caspase-3 deficient (caspase 3KO), caspase-7 deficient (caspase 7KO), caspase-3/-7 deficient (caspase 3/7 DKO), caspase-8 deficient (caspase 8KO), Bax-Bak wild-type (Bak-Bak WT)”, “HCT-116 p53−/− isogenic colon cancer cells” for “Bax-Bak double knock out (Bak-Bak DKO) mouse embryonic fibroblasts (MEFs)”, “[…])” for “μmol/L)”

[8] = tested on: Bax-Bak double knock out (DKO) mouse embryonic fibroblasts; assay: MTT cytotoxicity assay, Bax-Bak DKO MEFs; conditions: Fibroblast, 72 h, 3 days, read-out: Means of IC50
Procedure: as §2

Q: For `CC(C)=CCc1c2c(c3occ(-c4ccc(O)c(O)c4)c(=O)c3c1O)C=CC(C)(C)O2` [pomiferin], which IC50 [1] is on record?
A: The IC50 was 3.82 µM.

Q: What about the IC50 [2] of the same compound?
A: The IC50 was 0.44 µM.

Q: And the IC50 [3]?
A: Its IC50 is 16.3 µM.

Q: And the “cell death (in words)” value [4]?
A: Its value is “significantly induced cell death”.

Q: What about the “cell death (in words)” value [5] of the same compound?
A: Its value is “not in autophagy deficient cells”.

Q: And the IC50 [6]?
A: Its IC50 is 6.51 µM.

Q: And the IC50 [7]?
A: The IC50 was 5.58 µM.

Q: What about the IC50 [8] of the same compound?
A: The IC50 was 0.986 µM.
